In patent US20100173832A1, “ANTICANCEROUS POLYMERIC AGENTS” (TECHNION RESEARCH & DEVELOPMENT FOUNDATION LTD., priority 2007, published 2010):
Where two headings read alike, the source gives them in different places. Non-standard residues stand in square brackets, D forms with d. Residues, ends and D or L forms follow the SMILES beside them. *: point of attachment. Lauroyl = CCCCCCCCCCCC(=O)*; 12Ado = NCCCCCCCCCCCC(=O)O; Octanoyl = CCCCCCCC(=O)*

Experiments:
[1] = tested on: N-417 cell line; experiment: XTT cell viability assay, N-417 cells; assay type: cell-based
Text: Variant small cell lung cancer cells (N-417, SCLC);
(§1) As a routine cancer cell killing assay for assessment of antitumor activity, 2,3-bis(2-methoxy-4-nitro-5-sulfophenyl)-2H-tetrazolium-5-carboxanilide inner salt (XTT) reduction assay was used, utilizing a commercial kit such as, for example, Cell Proliferation XTT Kit, Cat. No. 20-300-1000, Biological Industries Ltd., Kibbutz Beit Haemek, Israel. XTT is a tetrazolium salt which is cleaved to formazan colored compounds by the mitochondrial dehydrogenase enzymes indicating proper mitochondrial activity in intact cells.
(§2) Thereafter, a series of increasing concentrations of the polymers were added. After another 24 hours of incubation, XTT reaction solution was added (50 μl of XTT per 100 μl of cell culture medium). The optical density of the cells was measured at 450 nm by ELISA plate reader after 2-4 hours XTT incubation. Cell viability was determined relative to a control having no polymer added thereto.
“Human breast cancer MCF-7” represents the lethal concentration in μM as measured against MCF-7 cell line, measured as described hereinabove in the cell proliferation XTT assay (column 6 in Table 3); “Human small-cell lung carcinoma N-417” represents the lethal concentration in μM as measured against N-417 cell line, measured as described hereinabove in the cell proliferation XTT assay (column 7 in Table 3);

[2] = tested on: MCF-7 cell line; assay type: cell-based
[3] = XTT cell viability assay, non-cancerous cardiac fibroblasts (CF); assay type: cell-based, rat; details: rat
Text: Primary non-cancerous rat cardiac fibroblasts (CF);
as §1, §2
“Rat primary cardiac fibroblast CF” represents the lethal concentration in μM as measured against CF cell line, measured as described hereinabove in the cell proliferation XTT assay (column 8 in Table 3);

[4] = in vitro; details: human
Method: The polymer's toxic potential was determined against human red blood cells (RBC) by measuring leakage of hemoglobin therefrom in phosphate buffer solution (PBS). Human blood samples were rinsed three times in PBS by centrifugation for 2 minutes at 200×g, and re-suspended in PBS at 5% hematocrit. A 50 μl-fractions of a suspension containing […] RBC were added to test tubes containing 200 μl of polymer solutions (2-fold serial dilutions in PBS), PBS alone (for base-line values), or distilled water (for 100% hemolysis). […] Controls for base-line hemolysis (blank) and 100% hemolysis consisted of RBC suspended in PBS and TritonX100 (0.2%), respectively.

[5] = tested on: TRAMP-C2 cell line; assay type: cell-based
Text: Transgenic adenocarcinoma mouse prostate cells (TRAMP-C2);
as §1, §2
“Mouse prostate cancer TRAMP-C2” represents the lethal concentration in μM as measured against TRAMP-C2 cell line, measured as described hereinabove in the cell proliferation XTT assay (column 5 in Table 3);

[6] = 24 hours incubation, XTT, read-out: Cancer LC50 Human small-cell lung carcinoma N-417
[7] = 24 hours incubation, XTT, read-out: Cancer LC50 Human breast cancer MCF-7
[8] = primary non-cancerous cardiac fibroblasts (CF), 24 hours incubation, XTT, non-cancerous cells, read-out: Cancer LC50 Rat primary cardiac fibroblast CF
[9] = 24 hours incubation, XTT, read-out: Cancer LC50 Mouse prostate cancer TRAMP-C2
[10] = Cancer LC50 Rat primary cardiac fibroblast CF

HC50 at 3 h ([4]; red blood cells) | Compound | CC50 [1, 6] | CC50 [2, 7] | CC50 at 24 h [3, 8] | CC50 [5, 9] | also measured
10 ± 1 µM | CCCCCCCCCCCC(=O)N[C@@H](CCCCN)C(=O)N[C@@H](CCCCN)C(=O)NCCCCCCCCCCCC(=O)N[C@@H](CCCCN)C(=O)N[C@@H](CCCCN)C(=O)NCCCCCCCCCCCC(=O)N[C@@H](CCCCN)C(=O)N[C@@H](CCCCN)C(=O)NCCCCCCCCCCCC(=O)N[C@@H](CCCCN)C(N)=O (Lauroyl-KK[12Ado]KK[12Ado]KK[12Ado]K-NH2) | 17 ± 2 µM | 8 ± 1 µM | 36 ± 6 µM | > 16 µM | 
10 ± 0.1 µM | CCCCCCCCCCCC(=O)N[C@@H](CCCCN)C(=O)NCCCCCCCCCCCC(=O)N[C@@H](CCCCN)C(=O)N[C@@H](CCCCN)C(=O)NCCCCCCCCCCCC(=O)N[C@@H](CCCCN)C(=O)N[C@@H](CCCCN)C(=O)NCCCCCCCCCCCC(=O)N[C@@H](CCCCN)C(N)=O (Lauroyl-K[12Ado]KK[12Ado]KK[12Ado]K-NH2) | < 16 µM | 6 ± 1 µM | > 16 µM | 10 µM | CC50 at 24 h ([3]; primary non-cancerous cardiac fibroblasts (CF), dose-dependent plots, FIGS. 4a-b, 6a, read-out: LC50 against non-cancerous CF cells): 38 µM; CC50 ([5]; dose-dependent plot, FIG. 6a, read-out: LC50 towards TRAMP-C2 cells): 11 µM
51 ± 6 µM | CCCCCCCC(=O)N[C@@H](CCCCN)C(=O)NCCCCCCCCCCCC(=O)N[C@@H](CCCCN)C(=O)N[C@@H](CCCCN)C(=O)NCCCCCCCCCCCC(=O)N[C@@H](CCCCN)C(=O)N[C@@H](CCCCN)C(=O)NCCCCCCCCCCCC(=O)N[C@@H](CCCCN)C(N)=O [C8(KNC12K)3NH2] (Octanoyl-K[12Ado]KK[12Ado]KK[12Ado]K-NH2) | 9 ± 1.4 µM | 8.7 ± 0.5 µM | 37 ± 1 µM | 15 ± 0.7 µM | 
 | CCCCCCCC(=O)N[C@@H](CCCCN)C(=O)N[C@@H](CCCCN)C(=O)NCCCCCCCCCCCC(=O)N[C@@H](CCCCN)C(=O)N[C@@H](CCCCN)C(=O)NCCCCCCCCCCCC(=O)N[C@@H](CCCCN)C(N)=O [C8K(KNC12K)2NH2] (Octanoyl-KK[12Ado]KK[12Ado]K-NH2) | > 16 µM | 20 ± 1 µM | > 50 µM | > 16 µM | 
 | CCCCCCCC(=O)N[C@@H](CCCCN)C(=O)N[C@@H](CCCCN)C(=O)NCCCCCCCCCCCC(=O)N[C@@H](CCCCN)C(N)=O [C8KKNC12KNH2] (HELM PEPTIDE1{[CCCCCCCC(=O)[*:2]].K.K.[O=C(CCCCCCCCCCCN[*:1])[*:2]].K.[am]}$$$$V2.0) |  |  |  |  | CC50 ([1]; human, 24 h): > 16 µM; CC50 ([2]; human, 24 h): > 16 µM; CC50 at 24 h [3, 10]: > 16 µM; CC50 ([5]; mouse, 24 h): > 16 µM
 | CCCCCCCCCCCC(=O)N[C@@H](CCCCN)C(=O)N[C@@H](CCCCN)C(=O)NCCCCCCCCCCCC(=O)N[C@@H](CCCCN)C(=O)N[C@@H](CCCCN)C(=O)NCCCCCCCCCCCC(=O)N[C@@H](CCCCN)C(N)=O [C12K(KNC12K)2NH2] (Lauroyl-KK[12Ado]KK[12Ado]K-NH2) | 11 ± 1 µM | 12 ± 4 µM | 38 ± 1 µM | > 16 µM | 
 | CCCCCCCCCCCC(=O)N[C@@H](CCCCN)C(=O)N[C@@H](CCCCN)C(=O)NCCCCCCCCCCCC(=O)N[C@@H](CCCCN)C(N)=O [C12KKNC12KNH2] (HELM PEPTIDE1{[CCCCCCCCCCCC(=O)[*:2]].K.K.[O=C(CCCCCCCCCCCN[*:1])[*:2]].K.[am]}$$$$V2.0) |  |  |  |  | CC50 ([1]; human, 24 h): > 50 µM; CC50 ([2]; human, 24 h): > 16 µM; CC50 at 24 h [3, 10]: > 16 µM; CC50 ([5]; mouse, 24 h): > 16 µM
> 100 µM | NCCCC[C@@H]1NC(=O)CCCCCCCCCCCNC(=O)[C@H](CCCCN)NC(=O)[C@H](CCCCN)NC(=O)CCCCCCCCCCCNC(=O)[C@H](CCCCN)NC1=O [Cyclic-(KNC12K)2] (HELM PEPTIDE1{[O=C(CCCCCCCCCCCN[*:1])[*:2]].K.K.[O=C(CCCCCCCCCCCN[*:1])[*:2]].K.K}$PEPTIDE1,PEPTIDE1,1:R1-6:R2$$$V2.0) |  |  |  |  | 
 | NCCCC[C@@H]1NC(=O)CCCCCCCCCCCNC(=O)[C@H](CCCCN)NC(=O)[C@H](CCCCN)NC(=O)CCCCCCCCCCCNC(=O)[C@H](CCCCN)NC(=O)[C@H](CCCCN)NC(=O)CCCCCCCCCCCNC(=O)[C@H](CCCCN)NC1=O [Cyclic-(KNC12K)3] (cyclo(K[12Ado]KK[12Ado]KK[12Ado]K)) |  |  |  |  | HC50 at 3 h [4]: > 100 µM
 | NCCCC[C@@H]1NC(=O)CCCCCCCCCCCNC(=O)[C@H](CCCCN)NC(=O)CCCCCCCCCCCNC(=O)[C@H](CCCCN)NC(=O)CCCCCCCCCCCNC(=O)[C@H](CCCCN)NC(=O)[C@H](CCCCN)NC(=O)CCCCCCCCCCCNC(=O)[C@H](CCCCN)NC(=O)CCCCCCCCCCCNC1=O [Cyclic-K(NC12K)5] (cyclo(K[12Ado]K[12Ado]K[12Ado]K[12Ado]K[12Ado]K)) |  |  |  |  | HC50 at 3 h [4]: 3.4 ± 0.3 µM
 | NCCCC[C@@H]1NC(=O)CCCCCCCCCCCNC(=O)[C@H](CCCCN)NC(=O)[C@H](CCCCN)NC(=O)CCCCCCCCCCCNC(=O)[C@H](CCCCN)NC(=O)[C@H](CCCCN)NC(=O)CCCCCCCCCCCNC1=O [Cyclic-NC12K(KNC12K)2] (cyclo([12Ado]KK[12Ado]KK[12Ado]K)) |  |  |  |  | HC50 at 3 h [4]: > 100 µM
> 100 µM | NCCCC[C@@H]1NC(=O)CCCCCCCCCCCNC(=O)[C@H](CCCCN)NC(=O)[C@H](CCCCN)NC(=O)CCCCCCCCCCCNC1=O [Cyclic-NC12KKNC12K] (HELM PEPTIDE1{[O=C(CCCCCCCCCCCN[*:1])[*:2]].K.[O=C(CCCCCCCCCCCN[*:1])[*:2]].K.K}$PEPTIDE1,PEPTIDE1,1:R1-5:R2$$$V2.0) |  |  |  |  | 
 | NCCCC[C@H](NC(=O)CCCCCCCCCCCNC(=O)[C@H](CCCCN)NC(=O)[C@H](CCCCN)NC(=O)CCCCCCCCCCCNC(=O)[C@H](CCCCN)NC(=O)[C@@H](N)CCCCN)C(N)=O [K(KNC12K)2NH2] (HELM PEPTIDE1{K.K.[O=C(CCCCCCCCCCCN[*:1])[*:2]].K.K.[O=C(CCCCCCCCCCCN[*:1])[*:2]].K.[am]}$$$$V2.0) | > 16 µM | > 16 µM | > 16 µM | > 16 µM | 
 | NCCCC[C@H](NC(=O)CCCCCCCCCCCNC(=O)[C@H](CCCCN)NC(=O)[C@@H](N)CCCCN)C(N)=O [KKNC12KNH2] (HELM PEPTIDE1{K.K.[O=C(CCCCCCCCCCCN[*:1])[*:2]].K.[am]}$$$$V2.0) |  |  |  |  | CC50 ([1]; human, 24 h): > 16 µM; CC50 ([2]; human, 24 h): > 16 µM; CC50 at 24 h [3, 10]: > 16 µM; CC50 ([5]; mouse, 24 h): > 16 µM
 | NCCCCCCCCCCCC(=O)N[C@@H](CCCCN)C(=O)NCCCCCCCCCCCC(=O)N[C@@H](CCCCN)C(=O)N[C@@H](CCCCN)C(=O)NCCCCCCCCCCCC(=O)N[C@@H](CCCCN)C(N)=O [NC12(KNC12K)2NH2] (H-[12Ado]K[12Ado]KK[12Ado]K-NH2) |  |  |  |  | CC50 ([1]; human, 24 h): > 16 µM; CC50 ([2]; human, 24 h): > 16 µM; CC50 at 24 h [3, 10]: > 16 µM; CC50 ([5]; mouse, 24 h): > 16 µM
 | NCCCCCCCCCCCC(=O)N[C@@H](CCCCN)C(=O)N[C@@H](CCCCN)C(=O)NCCCCCCCCCCCC(=O)N[C@@H](CCCCN)C(=O)N[C@@H](CCCCN)C(=O)NCCCCCCCCCCCC(=O)N[C@@H](CCCCN)C(N)=O [NC12K(KNC12K)2NH2] (H-[12Ado]KK[12Ado]KK[12Ado]K-NH2) | > 16 µM | > 16 µM | > 16 µM | > 16 µM | 
 | NCCCCCCCCCCCC(=O)N[C@@H](CCCCN)C(=O)N[C@@H](CCCCN)C(=O)NCCCCCCCCCCCC(=O)N[C@@H](CCCCN)C(N)=O [NC12KKNC12KNH2] (HELM PEPTIDE1{[NCCCCCCCCCCCC(=O)[*:2]].K.K.[O=C(CCCCCCCCCCCN[*:1])[*:2]].K.[am]}$$$$V2.0) | > 16 µM | > 16 µM | > 16 µM | > 16 µM | 

Compound | HC50 at 3 h ([4]; red blood cells) | CC50 [1, 6] | CC50 [2, 7] | CC50 at 24 h [3, 8] | CC50 [5, 9] | also measured
NCCCC[C@H](NC(=O)CCCCCCCCCCCNC(=O)[C@H](CCCCN)NC(=O)[C@H](CCCCN)NC(=O)CCCCCCCCCCCNC(=O)[C@@H](N)CCCCN)C(N)=O [(KNC12K)2NH2] (HELM PEPTIDE1{K.[O=C(CCCCCCCCCCCN[*:1])[*:2]].K.K.[O=C(CCCCCCCCCCCN[*:1])[*:2]].K.[am]}$$$$V2.0) | > 100 µM | > 16 µM | > 16 µM | > 16 µM | > 16 µM | 
